Measurements as given in patent US6808877B2, “Ligands for FPR class receptors that induce a host immune response to a pathogen or inhibit HIV infection” (priority 2000, dated 2004).
“Also recorded” adds a separate entry of the source.

Legend:
CCR5 = CCR5 serine phosphorylation in monocytes (anti-phosphoserine IP, anti-CCR5 immunoblot); format: cell-based, human; conditions: human monocytes; for serine phosphorylation of CCR5: 37° C.
Experimental: Monocytes were isolated by counter-flow elutriation from the peripheral blood of normal donors (NIH Clinical Center, Transfusion Medicine Department, Bethesda, Md.) and enriched for mononuclear cells by using counter-flow elutriation. The purity of the cell preparations was examined by morphology after cytospin, and was >90%. The cells were stimulated with different concentrations of chemokines for indicated time periods at 37° C. and lysed for 20 min on ice with periodic mixing in lysis buffer (1% Triton X-100, 20 mM, Tris-HCl pH 8.0, 137 mM NaCl, 15% glycerol, 5 mM EDTA) containing phosphatase and protease inhibitors (1 mM phenylmethylsulfonyl fluoride, 5 μg/ml aprotinin, 5 μg/ml leupeptin, 1 mM sodium orthovanadate, 1 mM EGTA). Cell lysates were precleared with 30 µl of washed Protein-A sepherose beads (Pharmacia Biotech. Piscataway, N.J.), 1 μg of polyclonal anti-phospho-serine antibody (Zymed Laboratory Inc. South San Francisco, Calif.) was added to 200 μg cell lysates diluted with 2×immunoprecipitation (IP) buffer (1×buffer contains 1%Triton X-100, 10 mM Tris-HCl pH 7.4, 137 mM NaCl, 1 mM EDTA, 1 mM EGTA, 0.2 mM sodium orthovanadate, 0.2 mM PMSF, 0.5% NP-40). The reaction mixture was incubated at 4° C. overnight under constant rocking. The immune complex was captured by adding 50 μl of washed Protein-A sepharose beads (25 μl packed beads) and incubation of the reaction mixture at 4° C. for additional 2 hours. The beads were spun down (10 seconds at 14,000 rpm), the pellets were washed 3 times with ice-cold IP buffer, resuspended in 30 μl of 2×Laemmli sample buffer (126 mM Tris-HCl, 20% Glycerol, 4% SDS, 0.005% bromophenol blue with or without addition of 1% 2-mercaptoethanol, Novex, San Diego, Calif.) and boiled for 5 min to elute the immune complex. After electrophoresis on 4-12% SDS-PAGE precast gel (Novex), the proteins were transferred to Immobilon P membranes (Millipore, Bedford, Mass.). The membranes were blocked in freshly prepared PBS containing 3% dry milk 2 h, then were incubated with 1 μg/ml of polyclonal anti-CCR5 antibody (Millenium Biotechnology, Ramona, Calif.) overnight at 4° C. followed by washing 3 times with PBS containing 0.05% Tween 20. The membranes were incubated with a horse radish-peroxidase conjugated goat anti-rabbit IgG (1:5000) (Sigma, St. Louis, Mo.) in PBS containing 3% dry milk for 1 hour at room temperature with agitation. After washing 3 times with PBS-0.05% Tween 20, the membranes were incubated with Super Signal Chemiluminescent Substrate Stable Peroxide Solution (Pierce, Rockford, Ill.) for 1 min, and exposed to BIOMAX-MR film (Eastman Kodak Company, Rochester, N.Y.).
Monocytes stimulated with different concentrations of stimulants for indicated time periods at 37° C. were lysed for 20 min on ice with periodic mixing in lysis buffer [1% Triton X-100, 20 mM Tris-HCl (pH 8.0), 137 mM NaCl, 15% glycerol, 5 mM EDTA] containing phosphatase and protease inhibitors (1 mM phenylmethylsulfonyl fluoride, 5 μg/ml aprotinin, 5 μg/ml leupeptin, 1 mM sodium orthovanadate, 1 mM EGTA). Cell lysates were precleaned with 30 μl of washed Protein A Sepharose beads (15 μl packed beads) at 4° C. for 1 hour and 1 μg of polyclonal anti-phosphoserine antibody was added to 200 μg cell lysates diluted with 2×immunoprecipitation (IP) buffer [1×: 1% Triton X-100, 10 mM Tris-HCl (pH 7.4), 137 mM NaCl, 1 mM EDTA, 1 mM EGTA, 0.2 mM […], 0.2 mM PMSF, 0.5% NP-40]. The reaction mixture was incubated at 4° C. overnight under constant rocking. The immunecomplex was captured by adding 50 μl of washed Protein A sepharose beads (25 μl packed beads) and incubating the reaction mixture at 4° C. for an additional 2 hours. […]

neutrophils = experiment: Ca2+ mobilization in neutrophils (Fura-2); format: cell-based, human
Experimental: (§1) Calcium mobilization was measured by incubating 2×10^7/ml cells in loading medium (DMEM, 10% FBS) with 5 μM Fura-2 AM (Molecular Probes, Eugene, Oreg.) for 30 min at room temperature in the dark. The dye-loaded cells were washed 3 times with loading medium and resuspended in saline buffer [138 mM NaCl, 6 mM KCl, 1 mM CaCl2, 10 mM HEPES (pH 7.4), 5 mM Glucose, 0.1% BSA] at a concentration of 1×10^6/ml. The cells were then transferred into quartz cuvettes (2 ml) which were placed in a luminescence spectrometer (LS-50B, Perkin-Elmer, Beaconsfield, England). Stimulants at different concentrations were added in a volume of 20 μl to each cuvette at the indicated time points. The ratio of fluorescence at 340 and 380 nm wavelength was calculated using a FL WinLab program (Perkin-Elmer).
(§2) Calcium mobilization was assayed by incubating 2×10^7/ml of monocytes, neutrophils, FPRL1 or FPR transfectants in loading buffer containing 138 mM NaCl, 6 mM KCl, 1 mM CaCl2, 10 mM HEPES (pH 7.4), 5 mM glucose, 0.1% BSA with 5 μM Fura-2 (Sigma) at 37° C. for 30 min. The dye-loaded cells were washed and resuspended in fresh loading buffer. The cells were then transferred into quartz cuvettes (10^6 cells in 2 ml) which were placed in a luminescence spectrometer LS50 B (Perkin-Elmer Limited, Beaconsfield, England). Stimulants at different concentrations were added in a volume of 20 μl to the cuvettes at indicated time points. The ratio of fluorescence at 340 and 380 nm wavelength was calculated using the FL WinLab program (Perkin-Elmer).

FPRL1 = molecular target: T1, FPRL1 (Homo sapiens, UniProt P25090); experiment: Ca2+ mobilization in FPRL1/293 cells; format: cell-based
T1 construct: expressed in transfected cells; host or cells: HEK 293
T1 sequence (P25090 1-351): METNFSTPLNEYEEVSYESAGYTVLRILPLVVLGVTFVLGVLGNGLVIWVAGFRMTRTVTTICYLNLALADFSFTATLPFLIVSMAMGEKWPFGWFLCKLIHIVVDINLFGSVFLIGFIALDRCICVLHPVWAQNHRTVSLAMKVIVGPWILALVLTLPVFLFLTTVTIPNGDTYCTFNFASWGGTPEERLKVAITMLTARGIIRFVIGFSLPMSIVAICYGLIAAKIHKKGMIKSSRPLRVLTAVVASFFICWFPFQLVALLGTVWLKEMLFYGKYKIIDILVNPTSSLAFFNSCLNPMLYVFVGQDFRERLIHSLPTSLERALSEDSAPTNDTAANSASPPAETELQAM
Experimental: as §1, §2

Compound | time to increase in CCR5 phosphorylation after stimulation (CCR5) [min] | serine phosphorylation of CCR5 (CCR5) | response to W peptide (Ca2+ flux) (neutrophils; concentrations in the micromolar range) | signaling of V3 peptide on cross-desensitization (neutrophils; high concentration of fMLP (1 μM), V3 1.5 μM) | effect on W peptide-induced Ca2+ flux (neutrophils; low concentrations (nM range)) | excess required to desensitize the effect of W peptide (Ca2+ flux) (FPRL1; FPRL1/293 cells) | minimal effective concentration to induce Ca2+ mobilization (FPRL1; FPRL1/293 cells, given as range in words) | time of maximal CCR5 phosphorylation (CCR5) [min] | Ca2+ mobilization (neutrophils) | Ca2+ mobilization (FPRL1; HEK293 cells transfected to express FPRL1)
CSCC[C@H](NC=O)C(=O)N[C@@H](CC(C)C)C(=O)N[C@@H](Cc1ccccc1)C(=O)O [fMLP, N-formyl-methionyl-leucyl-phenylalanine] | ≤ 1 | increased level of CCR5 phosphorylation; also recorded: induced CCR5 phosphorylation | significantly attenuated | attenuated | limited effect | 10^5 fold excess | μM range | – | – | –
TRPNYNKRKRIHIGPGRAFYTTKNIIGTIRQAH-NH2 [V3 peptide] | – | induced significant serine phosphorylation of CCR5 | – | – | – | – | – | 15 | mobilized Ca^2+ | induced both Ca^2+ mobilization and chemotaxis
